We go through six compounds from ChEMBL document CHEMBL4325927, “Synthesis, Anti-HBV, and Anti-HIV Activities of 3'-Halogenated Bis(hydroxymethyl)-cyclopentenyladenines” (ACS Med Chem Lett, 2018).

Structures are written as SMILES. Where only a bound is given, the exact number is not on record here.

In series [1] the test system is Human immunodeficiency virus 1. In words: Antiviral activity against HIV-1 3B infected in human MT2 cells assessed as inhibition of virus-induced cytopathic effect after 7 days by MTT assay. It is filed as functional, organism-based. Particulars: Human immunodeficiency virus 1, 3B, MT2, 168 h.
The nature of series [2]: Cytotoxicity against human MT2 cells after 7 days by MTT assay. It is filed as cell-based.
A short description of series [3]: Cytotoxicity against human HepG2.2.15 cells after 7 days by MTT assay. It is filed as cell-based, HepG2 2.2.15.
The subject of another series is HBV genotype D. In words: Antiviral activity against HBV genotype D infected in human HepG2.2.15 cells assessed as reduction in viral DNA level after 7 days by RT-PCR assay. It is filed as functional, organism-based. As to conditions: Hepatitis B virus, HepG2.2.15, 168 h.
Series [4] in a line: Selectivity index, ratio of CC50 for cytotoxicity against human HepG2.2.15 cells to EC50 for HBV genotype D infected in human HepG2.2.15 cells. It is filed as toxicity, cell-based. As to conditions: read-out: Ratio CC50/EC50.

As for `Nc1ncnc2c1ncn2[C@H]1C=C(Br)[C@H](CO)[C@H]1CO`, the EC50 in series [1] was over 100 µM; in the series with HBV genotype D, 0.029 µM. Besides, the 50% cytotoxic concentration (CC50) at 168 h in series [2] and in series [3] was over 100 µM each time.

Regarding `Nc1ncnc2c1ncn2[C@@H]1C=C[C@H](CO)[C@H]1CO`, the concentration giving a half-maximal response (EC50) in series [1] was 0.77 µM; in the series on HBV genotype D it was 0.0457 µM. The CC50 at 168 h in series [2] is 153 µM; in series [3], over 100 µM.

With `Nc1ncnc2c1ncn2[C@H]1C=C(Cl)[C@H](CO)[C@H]1CO`, the EC50 in series [1] was over 100 µM; with HBV genotype D, 0.146 µM. The 50% cytotoxic concentration (CC50) at 168 h in series [2] is over 100 µM.

For `Nc1ncnc2c1ncn2[C@H]1C=C(F)[C@H](CO)[C@H]1CO`, the EC50 in series [1] was over 100 µM; in the series with HBV genotype D it was 0.019 µM. Moreover, the 50% cytotoxic concentration (CC50) at 168 h in series [2] and in series [3] was over 100 µM throughout. The selectivity ratio in series [4] amounted to 5260.

On to `Nc1ncnc2c1ncn2[C@H]1C=C(I)[C@H](CO)[C@H]1CO`, for which the EC50 in series [1] is over 100 µM; in the series on HBV genotype D, 0.436 µM. This compound also registered a 50% cytotoxic concentration (CC50) at 168 h in series [2] of over 100 µM.

`C=C1[C@H](CO)[C@@H](O)C[C@@H]1n1cnc2c(=O)[nH]c(N)nc21` [ENTECAVIR]: the half-maximal cytotoxic concentration (CC50) at 168 h in series [3] turned out to be 52.9 µM. Further, in the series with HBV genotype D, the concentration for a half-maximal effect (EC50) amounted to 0.0038 µM.
